Measurements: a melting point compilation (Tetko et al.; mined from patent text by program, amines drawn as free bases though some values may be those of a salt)

Row | Compound | melting point [°C]
1 | COCCOc1c(C)cc(-c2nc3cc(OC)cc(OC)c3c(=O)[nH]2)cc1C | 201 to 202
2 | CCn1c(=O)ccc2ccccc21 | 52 to 54
3 | CCn1nc(OCCCc2ccc(OCCOC)cc2OCc2ccc(C(F)(F)F)cc2)cc1CCC(=O)O | 112 to 113
4 | N#CCCCCCC(=NOCCNC(c1ccccc1)(c1ccccc1)c1ccccc1)c1ccc(Cl)c(Cl)c1 | 131 to 132
5 | COc1cc(Br)c(OC(=O)c2ccc(OC)c(C(F)(F)F)c2)c(NC(=O)c2ccc(OC)c(C(F)(F)F)c2)c1 | 205 to 208
6 | CC(=O)N(CC=C=CC=c1c(C)c2c(n(C)c1=O)=NN(c1ccccc1)C2=O)c1ccccc1 | > 300
7 | O=P(O)(O)C(F)(F)c1ccc(CN(c2ccc(Cl)c(Cl)c2)c2nnc(-c3cccc(Oc4cccc(-c5nnn[nH]5)c4)c3)s2)cc1Br | 232 to 235
8 | O=C(O)Cc1nn(CC(=S)Nc2cc(C(F)(F)F)ccc2Br)c(=O)c2ccccc12 | 176 to 177
9 | O=C(O)CCC(=NOCc1ccc(OCc2csc(-c3ccccc3)n2)cc1)c1ccccc1 | 104 to 105
10 | Cc1nc2c(OCc3ccccc3F)cccn2c1CC#N | 172 to 173
11 | N#Cc1cc(F)c(O)nc1O | 135 to 140
12 | CCCN(C)C(=O)N(C)C(=O)Nc1ccccc1 | 63 to 64
13 | CC(=O)Nc1c([N+](=O)[O-])cc(Br)c2c1CCN(C(C)=O)C2 | 171
14 | CC(=O)c1ccc2c(c1)oc(=O)n2CCCCl | 100 to 103
15 | O=C(c1ccc([N+](=O)[O-])cc1)N1CCC[C@@H]2CCCC[C@H]21 (relative stereo) | 84 to 87
16 | CCc1nnc2ccc(-c3cccc(C(F)(F)F)c3)nn12 | 183 to 185
17 | CCn1c(=O)n(C)c(=O)c2c(C)onc21 | 88 to 89
18 | CC1=C(N)C(C)C2CC(C)(CC3CCN(c4ccc(-n5ccnc5)cc4)CC3)OC2=C1C (centres undefined) | 170 to 172
19 | Nc1nonc1C(=O)NCCCCCC(=O)NO | 150 to 152
20 | CCOC(=O)c1c(CS(=O)c2nccn2C)nc2cc(OC)c(OC)cc2c1-c1ccc(OC)c(OC)c1 (centres undefined) | 193 to 194
21 | CCn1ncnc1COc1nn2c(-c3ccccc3F)nncc2c1C(C)(C)C | 105
22 | CCC(=O)c1cc(Cl)c(Cl)c2c1OCC(CO)O2 (centres undefined) | 121 to 123
23 | COC(=O)c1c[nH]c(Sc2ccccc2C)c1 | 114 to 119
24 | c1ccc2c(c1)CC(CCN1CCN(c3cccc4[nH]ccc34)CC1)C2 | 146 to 147
25 | c1ccc(-c2csc(Nc3cc4ccccc4cn3)n2)cc1 | 265 to 267

Row | Compound | melting point [°C]
26 | COC(=O)C(C(=O)OC)c1cc(F)cc2c1C(=O)c1cc3ccccc3cc1C2=O | 225 to 230
27 | CCOC(=O)Oc1ccc(/C(=C(/CC)c2ccccc2)c2ccc(/C=C/C(=O)O)cc2)cc1 | 135 to 136
28 | COc1ccc(NC(=S)NC(NC(=O)c2ccc(C)cc2)C(F)(F)F)cc1 (centres undefined) | 193 to 194
29 | COC(=O)C#CC1CCC2C3CCC4CC(O)CCC4(C)C3CCC12C (centres undefined) | 135 to 137
30 | C=CCOc1ccc2nc(S(N)(=O)=O)sc2c1 | 184 to 187
31 | CC(=O)N(c1cccc(C(=O)O)c1)c1cc(C(C)(C)C)c(O)c(C(C)(C)C)c1 | 204 to 206
32 | Cn1ccc(-c2ccc([N+](=O)[O-])o2)n1 | 163 to 164
33 | C=CCC(=C)C(O)C(NC=O)C(=O)OC (centres undefined) | 75 to 77
34 | O=C1C(=O)N(Cc2ccc(O)cc2)c2ccc(S(=O)(=O)N3CCCC3COc3cccnc3)cc21 (centres undefined) | 127 to 129
35 | N=C(N)c1ccc(C(=O)N[C@@H](Cc2cc(I)c(O)c(I)c2)C(=O)N2CCC(OCC(=O)O)CC2)cc1 | 220 to 221
36 | CC(Br)c1ccc(-c2onc3ccccc23)cc1 (centres undefined) | 106 to 108
37 | CCCCCCn1c(=O)c2c(ncn2CCCCC(C)O)n(C)c1=O (centres undefined) | 68 to 69
38 | O=C(O)c1ccc(-c2nc(-c3ccc(Oc4ccccc4)cc3)no2)cc1 | 278 to 279
39 | COc1ccc(CCc2cc3cc(C#N)ccc3o2)c(CC(=O)OCc2ccccc2)c1 | 127 to 128
40 | COc1ccc(-c2nc(N)ncc2-c2ccc(=O)n(C(C)C)n2)cc1 | 216
41 | COc1ccc(-c2ccc3c(c2)c2c(C=Cc4ccccc4)ccnc2n3S(=O)(=O)c2ccccc2)cc1 | 190 to 192
42 | O=S(=O)(NCc1ccc(Br)cc1)c1ccccc1Br | 108 to 110
43 | CCCN1C(=O)N2C[C@@H](Cc3ccccc3)N=C2c2[nH]c([C@H]3CC[C@H](CN)CC3)nc21 | 70 to 71
44 | O=C(Nc1ccccc1)NC1CCN(Cc2ccccc2)CC1 | 161 to 162
45 | CCOC(=O)c1cc2c([nH]1)CN(C(=O)OCC(Cl)(Cl)Cl)CC2 | 126 to 127
46 | CC(=O)Nc1nc2c(Oc3cc(-c4ccc(C(F)(F)F)nc4NC4CCN(C(C)C)C4)ncn3)cccc2s1 (centres undefined) | 140 to 141
47 | CCCC(=O)NCCc1c[nH]c2cc(Cl)c(OC)cc12 | 98 to 98.5
48 | CCCN(CCC)CCCCNC(=O)c1cnc2cc(I)ccc2n1 | 74 to 76
49 | COc1ccccc1N1CCN(CC(O)COc2ccccc2CC(N)=O)CC1 (centres undefined) | 120 to 122
50 | COc1cccc2c1c(=O)oc(=O)n2C | 216

Row | Compound | melting point [°C]
51 | Cn1c(=O)c2c(N)ccnc2n(C)c1=O | 233 to 235
52 | COC(=O)C(C)(C)OCc1cc2cc(Cl)ccc2n1S(=O)(=O)c1cc(C)cc(C)c1 | 110 to 112
53 | Clc1ccc2c(c1)N(CC#CCN1CCCC1)c1ccccc1S2 | 48 to 50
54 | OCc1cnc2c(F)c(F)c(F)cc2c1-c1cccs1 | 126 to 128
55 | Fc1ccc(Oc2cc3c(Cl)nc(Cl)nc3cn2)c(F)c1 | 144 to 146
56 | CCOC(=O)c1cn2c3c(c(F)c(F)cc3c1=O)OCC2 | 265 to 266
57 | CSc1sc(-c2cccnc2)c2c1C(=O)C(=CO)C(C)(C)C2 | 154 to 156
58 | CCCCCOc1ccc(C=C2SC(=S)N(CC(=O)O)C2=O)cc1OCc1ccccc1 | 229 to 234
59 | CC(C)Oc1ccc(-c2ccc3nnn(Cc4ccc5ncccc5c4)c3n2)cc1F | 128 to 130
60 | Nc1c(C(=O)c2cccc(Br)c2)[nH]c2cc(Cl)ccc12 | 142 to 143
61 | NC(=O)Cc1cccc2c(-c3ccccc3)onc12 | 191 to 192
62 | CON=C(C)c1ccc2nnn(Cc3ccc4ncccc4c3)c2n1 | 155 to 157
63 | Cc1c(S(=O)c2cc(Cl)c(Cl)cc2Cl)cc(C(C)(C)C)c(O)c1C(=O)Nc1ccc([N+](=O)[O-])cc1C(F)(F)F (centres undefined) | 234 to 235
64 | COc1ccc(CS(=O)CC(=O)NO)cc1OC (centres undefined) | 202
65 | CCP(=S)(CC)OC(=O)/C=N\OCc1csc(N)n1 | 87 to 88
66 | S=C(CCC(c1ccccc1)(c1ccccc1)c1ccccc1)Oc1c(Cl)c(Cl)c(Cl)c(Cl)c1Cl | 154 to 156
67 | COc1cc(OC)nc(NC(=O)NS(=O)(=O)c2sccc2C(CCl)OC(C)=O)n1 (centres undefined) | 150 to 151
68 | O=C(O)Cc1c(C(=O)c2cccc(Cl)c2)[nH]c2ccc(Cl)cc12 | 243 to 247
69 | CCCCNc1c(N)c(S)nc(C)c1C(=O)OCC | 103 to 105
70 | Brc1cncc2cccnc12 | 79 to 81
71 | Cc1ccc(S(=O)(=O)OC2=COC2)cc1 | 86 to 88
72 | O=C1NCCCN1CCCN(Cc1ccccc1)CC1CCc2ccccc2O1 (centres undefined) | 94.7
73 | CC(C)=CCOc1ccc2c(=O)c(C)c(-c3ccccc3)oc2c1C(=O)C=Cc1ccc(Cl)cc1 | 130 to 133
74 | NS(=O)(=O)c1ccc(-c2cn(-c3nc(-c4ccc(Cl)cc4)cc(C(F)(F)F)n3)cn2)s1 | 284
75 | COc1ccc(S(N)(=O)=O)cc1C(=O)NC1CCN(CC2CC2)C1 (centres undefined) | 150

Row | Compound | melting point [°C]
76 | COc1ccc(-c2coc3cc(OC(C)C)ccc3c2=O)cc1 | 245 to 246
77 | CN1C(=O)C(C)(C)N=C(c2ccccc2F)c2cc([N+](=O)[O-])cc(Cl)c21 | 237 to 238
78 | Cc1cc(OCCCS(C)(=O)=O)cc(C)c1-c1cccc2c1OC[C@H]2Nc1ccc2c(c1)OC[C@H]2CC(=O)O | 169
79 | Cc1nc2cnccc2n1-c1ccc(CCO)cc1 | 196 to 198
80 | O=C(N[C@H](Cc1ccc(C(F)(F)F)cc1)[C@@H](O)c1ccc(F)cc1)c1cccc2c1OCC2 (racemic) | 121 to 122
81 | CNC(=O)N1CC(Oc2cccc(C)c2)C1 | 138 to 142
82 | CCOC(=O)c1cn(C2CC2)c2c(C)c(N3CCN(C)CC3)c(F)c(Cl)c2c1=O | 175 to 177
83 | Clc1cc2c(nn1)CCCCCCCCCC2 | 126 to 128
84 | Clc1cc(Cl)c2[nH]c(-c3ccccc3)cc2c1 | 136 to 138
85 | O=C(O)c1ccc2c(c1)NCc1ccccc1O2 | 251 to 252
86 | O=C(O)Cc1ccc(O)c(Cl)c1 | 101 to 104
87 | CC(C)(C)OC(=O)N1CCC(OCc2ccccc2)C1CC(=O)Cn1cnc2cccc(C(F)(F)F)c2c1=O (centres undefined) | 218
88 | Cc1cccc2c1N(C(=O)OC(C)(C)C)Cc1c(-c3noc(C4CC4)n3)ncn1-2 | 189 to 192
89 | CCOC(=O)c1c(C)nc2[nH]c3ccccc3c2c1N | 253 to 254
90 | CCOC(=O)CN(C)C(=O)c1ccccc1C(=O)c1cc(C(C)(C)C)c(O)c(C(C)(C)C)c1 | 98 to 99
91 | CCOC(=O)c1cn(C2CC2)c2cc(F)c(F)c(N(Cc3ccccc3)C(C)=O)c2c1=O | 147 to 150
92 | Sc1ccc(-c2nc3cnccc3[nH]2)cc1 | 230
93 | COC(=O)c1c(C)n(-c2cc(N)c(C)cc2C)cc(Cl)c1=O | 215
94 | N#CN1c2ccccc2CC(Cl)c2ccccc21 (centres undefined) | 139 to 140
95 | CC(CO)COc1ccc(C#Cc2ccc(C(=O)O)cc2)cc1C12CC3CC(CC(C3)C1)C2 (centres undefined) | 260 to 262
96 | COc1cc(C=C(C#N)C(N)=O)c([N+](=O)[O-])cc1OC | 265 to 266
97 | C#CCOC(=O)C1=C(C)NN=C(CC)C1c1cccc([N+](=O)[O-])c1 (centres undefined) | 70
98 | COC(=O)c1ccc(O)c(-n2cccc2C=O)c1 | 147 to 148
99 | COCCOc1ccc(/C=C/C(=O)O)c(OCC2CC2)c1 | 118 to 119
